How the values were obtained:
[1] = biological target: Glutamate [NMDA] receptor; test: Tested for the inhibitory activity by the inhibition of excitatory L-[3H]Glutamate binding to NMDA recognition sites; type: protein-complex assay
[2] = biological target: Glutamate [NMDA] receptor; test: Tested for the inhibitory activity by the inhibition of excitatory [3H]CGS-19,755 binding to NMDA recognition sites; type: protein-complex assay
[3] = Tested for the ability to inhibit the pentylenetetrazole induced seizures against NMDA antagonist by intraperitoneal administration; type: functional; conditions: ip
[4] = Tested for the ability to inhibit the NMDA induced seizures against NMDA antagonist by intraperitoneal administration; type: functional; conditions: ip
[5] = Tested for the ability to inhibit the maximal electroshock induced seizures against NMDA antagonist by intraperitoneal administration; type: functional; conditions: ip

SMILES	IC50 [1] [nM]	IC50 [2] [nM]	ED50 [3] [mg/kg]	ED50 [4] [mg/kg]	ED50 [5] [mg/kg]
N[C@H](C[C@H]1CCCC[C@H]1CCP(=O)(O)O)C(=O)O	607	148	4.51	2.68	13.4
NC(CC1CCCCC1CCP(=O)(O)O)C(=O)O (stereo unspecified)	1600	976	6.02	12.4	> 15
O=C(O)[C@H]1CN(CCCP(=O)(O)O)CCN1	321	86	–	–	–
O=C(O)[C@@H]1C[C@H](CP(=O)(O)O)CCN1 (single isomer, unassigned) [SELFOTEL]	–	–	29	2.64	12.9
CC(=CC(N)C(=O)O)CP(=O)(O)O (stereo unspecified) [CGP-37849]	25.7	18	> 10	3.41	3.64

Further lines, with some results ahead:

IC50 [1] [nM]	IC50 [2] [nM]	SMILES	ED50 [3] [mg/kg]	ED50 [4] [mg/kg]	ED50 [5] [mg/kg]
6460	239	N[C@@H](C[C@@H]1CCCC[C@@H]1CCP(=O)(O)O)C(=O)O	–	–	–
3130	555	N[C@H](C[C@@H]1CCCC[C@@H]1CCP(=O)(O)O)C(=O)O	–	–	–
2590	264	N[C@@H](C[C@H]1CCCC[C@H]1CCP(=O)(O)O)C(=O)O	–	–	–
